# Measured values as given in patent publication US10370718B2, “Use of HLA genetic status to assess or select treatment of celiac disease” (ImmusanT, Inc., priority 2014, dated 2019).
# Square brackets hold non-standard residues; d marks the D form. pGlu = O=C1CC[C@@H](C(=O)O)N1
# Tested on: circulating cytokines
# Assay: Circulating cytokines/chemokines in plasma after dosing (MAGPIX multiplex platform)
# Assay type: in vivo, human
# Conditions: dose of 150 micrograms; same dose in both genotype groups
# Method: 3 cohorts of subjects with HLA-DQ2.5+(heterozygous or homozygous) biopsy-proven Celiac disease on a gluten-free diet for at least 1 year were included in the study. The first cohort (Cohort 1) contained 12 subjects who were dosed with 150 mcg of a gluten peptide composition (an equimolar composition in sodium chloride 0.9% USP of 3 peptides: ELQPFPQPELPYPQPQ (SEQ ID NO: 9), EQPFPQPEQPFPWQP (SEQ ID NO: 10), and EPEQPIPEQPQPYPQQ (SEQ ID NO: 11), each peptide comprising an N-terminal pyroglutamate and C-terminal amidated amino acid) or a placebo (sodium chloride 0.9% USP) intradermally, twice a week for 8 weeks total. The second cohort (Cohort 2) contained 13 subjects who were dosed with 300 mcg of the gluten peptide composition or the placebo intradermally, twice a week for 8 weeks total. […] Both Cohorts 1 and 2 received an oral gluten challenge and were assessed for gamma-interferon (gIFN) release and then returned to baseline prior to starting the treatment regimen. […]
# The progress of each subject before, during and after the trial was assessed using multiple tests including serology (tTG-IgA, DGP-IgG, DGP-IgA, and EMA-IgA), histology, and IFNg whole blood release assay, and cytokine/chemokines in plasma (measured by MAGPIX® multiplex platform). Plasma cytokines and chemokines were measured at several timepoints pre and post first and last dose. […]
substance,measurement,value
"gluten peptide composition: equimolar composition in sodium chloride 0.9% USP of 3 peptides (SEQ ID NO: 9, 10, 11), each with N-terminal pyroglutamate and C-terminal amidated amino acid (chain 1 [pGlu]LQPFPQPELPYPQPQ-NH2; chain 2 [pGlu]QPFPQPEQPFPWQP-NH2; chain 3 [pGlu]PEQPIPEQPQPYPQQ-NH2)","levels of circulating cytokines in response to administration, HLA-DQ2.5 homozygous subjects compared to subjects with other genotypes",generally increased levels of circulating cytokines
